The test system of one series is HT-29 colon cancer cells. The series is described as follows: Antiproliferation assay in HT-29 cells by CellTiter Glo. In kind it is cell-based. The note with it: Homo sapiens, 72 hours or 144 hours. A general note: ATP-based viability assays read luminescence as a measure of living cells.
In the next series the test system is P-glycoprotein (MDR1). Description: MDCK-MDR1 Permeability Assay. In kind it is in vitro ADME, canine. Conditions: dog; for efflux ratio at 120 min: MDCK-MDR1, Papp(B-A)/Papp(A-B); for Papp A→B at 120 min: MDCK-MDR1, apical to basolateral; for Papp A→B at 120 min / Papp B→A at 120 min: 1-30 μM; for Papp B→A at 120 min: MDCK-MDR1, basolateral to apical. The protocol: MDCK-MDR1 cells originate from transfection of Madin Darby canine kidney (MDCK) cells with the MDR1 gene, the gene encoding for the efflux protein, P-glycoprotein. This cell line is ideal for identifying substrates of P-gp, with or without an inhibitor. The cells are seeded on a Multiscreen™ plate to form a confluent monolayer over 4 days prior to the experiment. On day 4, the test compound (1-30 μM concentration) is added to the apical side of the membrane and the transport of the compound across the monolayer is monitored over a 120 minutes time period. To study drug efflux, it is also necessary to investigate transport of the compound from the basolateral compartment to the apical compartment and calculate an efflux ratio.
The permeability coefficient (Papp) is calculated from the following equation: Papp=[(dQ/dt)/C0×A] where dQ/dt is the rate of permeation of the drug across the cells, C0 is the donor compartment concentration at time zero and A is the area of the cell monolayer.
An efflux ratio is calculated from the mean apical to basolateral (A-B) Papp data and basolateral to apical (B-A) Papp data. Efflux Ratio=Papp(B−A)/Papp(A−B)

A short description of series [1]: Caco-2 Permeability Assay. In kind it is in vitro ADME. Conditions: human; for efflux ratio at 120 min: Caco-2; for Papp A→B at 120 min: Caco-2, apical to basolateral; for Papp A→B at 120 min / Papp B→A at 120 min: 1-30 μM; for Papp B→A at 120 min: Caco-2, basolateral to apical. The protocol:
Caco-2 cells are widely used as an in vitro assay to measure the permeability of a drug compound. The Caco-2 cell line is derived from a human colorectal carcinoma, and when cultured, the cells spontaneously differentiate into monolayers of polarized enterocytes. Caco-2 cells express P-glycoprotein and breast cancer resistance protein, two of the most relevant cell membrane active transporters that affect drug compound's permeability into cells and blood brain barrier.
The cells are seeded on Millipore Millicell plates and form a confluent monolayer over 20 days prior to the experiment. On day 20, the test compound (1-30 μM concentration) is added to the apical side of the membrane and the transport of the compound across the monolayer is monitored over a 120 minutes time period. To study drug efflux, it is also necessary to investigate transport of the compound from the basolateral compartment to the apical compartment.
The permeability coefficient (Papp) is calculated from the following equation: Papp=[(dQ/dt)/C0×A] where dQ/dt is the rate of permeation of the drug across the cells, C0 is the donor compartment concentration at time zero and A is the area of the cell monolayer. C0 is obtained from analysis of the dosing solution at the start experiment.
In general terms: Caco-2 cells form a polarised layer with tight junctions and transporters.

In another series the test system is A375 melanoma cells. The series is described as follows: Antiproliferation assay in A375 cell line by CellTiter Glo. It is filed as cell-based. Conditions: Homo sapiens, A-375, 72 hours or 144 hours. The protocol:
In vitro anti-proliferation study of test compounds in A375 cell line by CellTiter Glo. The cells were routinely maintained as a monolayer culture in corresponding culture medium, at 37° C. with 5% CO2 in air.
Harvest the exponential growth cells by trypsin-EDTA digestion. Re-suspend the cell pellet in fresh culture medium, and adjust the concentration to needed (the cell density per well was listed in following form). The cell viability is over 98% by Trypan blue staining. Inoculate cells into 96 wells plates according to the plate map (90 μL/well). Incubate the plates at 37° C. and 5% CO2 overnight. The next day, prepare the 10×compound containing medium according to the plate map. Transfer 10 μL of 10×compound containing medium into each well of the assay plates (the final DMSO concentration is 0.5%). Gently mix the medium and incubate at 37° C. and 5% CO2 for another 72 hours or 144 hours.
Prepare the reagent according to the manufacture's instruction. Add 50 μL CellTiter-Glo Reagent in each well. Mix contents for 2 minutes on an orbital shaker to induce cell lysis. Allow the plate to incubate at room temperature for 10 minutes to stabilize luminescent signal. Transfer 100 μL of reaction contents of each well from the clear plates into white walled/white opaque 96-well plates. Record the luminescence on Envision.
Using the luminescence measurements [time zero (T0), control growth (C), and test growth in the presence of drug at the six concentration levels (Ti)], the percentage growth is calculated at each of the drug concentrations levels.
Percentage growth inhibition (GI) is calculated as: GI (%)═[(Ti-T0)/(C-T0)]×100 for concentrations for which Ti>=T0, and GI (%)═[(Ti-T0)/T0]×100 for concentrations for which Ti<T0. Data were analyzed using the XLFit (Excel) tool, fitting to a 4-parameter equation to generate concentration response curves. Concentration of compound that inhibits 50% of control cell growth (GI50) was back-interpolated when y=50% of net growth of DMSO treated control wells using nonlinear regression with the equation: f(x) 205 [fit=(A+((B−A)/(1+((C/x)^))))], where A is the minimum response (Ymin), B is the maximum response (Ymax), C is the inflection point of the curve (Re GI50) and D is the Hill coefficient. Growth inhibition of 50% (GI50) was calculated at the 50% Growth inhibition on the curve. Index values were the sum of Inhibition rate (IR) at each tested compound concentration.

A short description of series [2]: Mouse Pharmacokinetics Study. It is filed as in vivo. Conditions: CD-1 mice; for Vd / half-life / clearance / AUC / Cmax / Tmax: mouse, plasma; for Vd / half-life / clearance: IV 2.5 mg/kg; for half-life: 20% Hydroxypropyl-beta-cyclodextrin; for clearance: read-out: Clp. From the text: The pharmacokinetic properties of selected compounds were studied CD-1 mice via intravenous and oral administration by using a standard protocol. The test articles were formulated in 20% Hydroxypropyl-beta-cyclodextrin, either as a clear solution or fine suspension.

A value given as a limit tells only on which side of the number the result lay.

Take `CCCS(=O)(=O)Nc1cccc(Oc2ccc3c(c2)C2=NCCN2C=N3)c1C#N` [Compound 1, N-(2-Cyano-3-((2,3-dihydroimidazo[1,2-c]quinazolin-9-yl)oxy)phenyl)propane-1-sulfonamide]: the GI50 with HT-29 colon cancer cells is below 100 nM. In addition, in the series on P-glycoprotein (MDR1), the efflux ratio at 120 min is 6.53, the Papp A→B at 120 min stood at 3.65 ×10⁻⁶ cm/s and the Papp B→A at 120 min stood at 23.8 ×10⁻⁶ cm/s. In series [1], the efflux ratio at 120 min was found to be 2.92, the Papp A→B at 120 min was determined as 6.42 ×10⁻⁶ cm/s and the Papp B→A at 120 min was determined as 18.7 ×10⁻⁶ cm/s. The compound further came in with a 50% growth inhibitory concentration (GI50) in the series with A375 melanoma cells below 100 nM. Also, in series [2] (PO 30 mg/kg), the F was determined as 112 ± 14%, the AUC was determined as 207000 ± 25900 ng·h/mL, the peak level (Cmax) was 37300 ± 6240 ng/mL and the Tmax came to 60 min. In addition, in series [2], the Vd came out at 0.348 ± 0.037 L/kg, the half-life was 88.2 ± 11.4 min and the clearance is 2.77 ± 0.52 mL/min/kg.
Turning to `CCCS(=O)(=O)Nc1cccc(Oc2ccc3c(c2)C2=NCCN2C=N3)c1Cl` [Compound 6, N-(2-Chloro-3-((2,3-dihydroimidazo[1,2-c]quinazolin-9-yl)oxy)phenyl)propane-1-sulfonamide], the GI50 with HT-29 colon cancer cells was 100 to 1000 nM. Also, in the series with P-glycoprotein (MDR1), the efflux ratio at 120 min is 1.42, the Papp A→B at 120 min was 26.3 ×10⁻⁶ cm/s and the Papp B→A at 120 min is 37.2 ×10⁻⁶ cm/s. In addition, in series [1], the efflux ratio at 120 min was determined as 0.31, the Papp A→B at 120 min was 43.5 ×10⁻⁶ cm/s and the Papp B→A at 120 min turned out to be 13.5 ×10⁻⁶ cm/s. Also, in the series with A375 melanoma cells, the GI50 was below 100 nM. Besides, in series [2] (PO 25 mg/kg), the F is listed as 58.9 ± 21.5%, the AUC came to 8220 ± 3000 ng·h/mL, the highest level (Cmax) was 4220 ± 1350 ng/mL and the Tmax stood at 15 min. In addition, in series [2], the Vd is 1.22 ± 0.16 L/kg, the half-life was 28 ± 0.72 min and the clearance was found to be 30.3 ± 4.64 mL/min/kg.
`CCCS(=O)(=O)Nc1cccc(Oc2ccc3c(c2)C2=NCCCN2C=N3)c1F` [Compound 18, N-(3-((3,4-Dihydro-2H-pyrimido[1,2-c]quinazolin-10-yl)oxy)-2-fluorophenyl)propane-1-sulfonamide] yielded a GI50 in the series with HT-29 colon cancer cells of 100 to 1000 nM. Moreover, in series [1], the efflux ratio at 120 min came out at 2.2, the Papp A→B at 120 min was 11.3 ×10⁻⁶ cm/s and the Papp B→A at 120 min turned out to be 24.9 ×10⁻⁶ cm/s. The same compound came in with a GI50 in the series on A375 melanoma cells below 100 nM.
As to `CCCS(=O)(=O)Nc1cccc(Oc2ccc3c(c2)C2=NCCCN2C=N3)c1Cl` [Compound 21, N-(2-Chloro-3-((3,4-dihydro-2H-pyrimido[1,2-c]quinazolin-10-yl)oxy)phenyl)propane-1-sulfonamide], in the series on HT-29 colon cancer cells, the GI50 was below 100 nM. In the series on P-glycoprotein (MDR1), the efflux ratio at 120 min is 1.68, the Papp A→B at 120 min turned out to be 24.1 ×10⁻⁶ cm/s and the Papp B→A at 120 min was 40.5 ×10⁻⁶ cm/s. In series [1], the efflux ratio at 120 min amounted to 0.36, the Papp A→B at 120 min came out at 52.9 ×10⁻⁶ cm/s and the Papp B→A at 120 min worked out at 19.2 ×10⁻⁶ cm/s. This compound also showed a GI50 in the series on A375 melanoma cells below 100 nM. Further, in series [2] (PO 25 mg/kg), the F was 113 ± 11.1%, the exposure (AUC) was 53800 ± 5210 ng·h/mL, the Cmax came to 11700 ± 2380 ng/mL and the Tmax is 30 min. In series [2], the Vd was found to be 0.948 ± 0.166 L/kg, the half-life was 72.6 ± 6 min and the clearance worked out at 9.03 ± 1.31 mL/min/kg.

The term GI50 denotes the concentration at which growth is held to half of that of the control. Higher therefore signals lower sensitivity of the cells. Usually efflux ratio stands for a quotient of directional permeabilities that is used to spot active efflux. As usually defined, the Papp A→B is how fast a substance crosses the layer from the apical side. Read a low Papp A→B as slow passage. A word on the Papp B→A: it is the apparent permeability from the basolateral to the apical side of a cell layer. What is called Vd is a proportionality between amount in the body and measured concentration, not a real space. Higher therefore signals wide distribution into tissue. Broadly, the half-life is the time needed for the level to fall by half in the phase considered. Lower therefore signals rapid decline. For orientation: AUC means the area under the concentration-time curve, a measure of exposure. The Cmax is the maximum level reached in the sampled fluid or tissue. For orientation: Tmax means the time at which the peak concentration occurs.

For the origin of these results see US11254680B2, “Cyclic iminopyrimidine derivatives as kinase inhibitors” (ABM Therapeutics Corporation, priority 2017, dated 2022).
